According to patent EP0100673A2, “A method of enhancing neurofiber regrowth” (THE RESEARCH FOUNDATION OF STATE UNIVERSITY OF NEW YORK, priority 1982, dated 1984):

Columns and labels:
sciatic nerve [1] = assay: Counts of myelinated axons 5.0 mm proximal to repair by light microscopy; assay type: in vivo, rat; settings: all time periods, treated nerves compared to control
Method: (§1) lwenty raty art anenthetizve with sel rompun (0.5 cc total volume). The right sciatic nerve is exposed and severed with microneuroscissors, and subsequently repaired microsurgically with 6-8 circumferential microsutures using 10-0 nylon. Immediately following surgery the treated animals receive 12 mg/kg Ac leupeptin in 5% DMSO (dimethylsulphoxide) as a bath on their sciatic nerve, 0.25 cc. total volume. Then the treated animals are injected intramuscularly in right hindlimb with 0.25 cc of a solution containing 12 mg/kg Ac leupeptin in 5% DMSO. Control animals receive the same surgical treatment, but the bath and intramuscular injection consist only of the solvent and 5% DMSO.
(§2) Thereafter, treated animals are injected twice weekly in the operated hindlimb with 12 mg/kg Ac leupeptin in 5% DMSO (0.25 cc total volume) for periods of 1 week, 1 month, two months, three months - and six months. Control animals are injected with 0.25 cc of 5% DMSO twice weekly in the operated hindlimb for the same time period.
(§3) Two treated and two control animals are assigned to each of the stated time periods.
(§4) A ten mm. portion of the repaired sciatic nerve is excised from each animal. This is fixed in 3.0% glutaraldehyde in 0.1 M sodium cacodylate, pH 7.3, overnight for electron microscopy. After post-fixation in 1.0% osmium tetroxide, ethanol dehydration and embedding in Polybed 812, both thick (1 micron) and thin (500 A°) transverse sections are cut on a ultramicrotome. Portions of the excised muscles receive similar preparation for electron microscopy.
(§5) Thick sections of the sciatic nerve are placed on microscope slots stained with toluidine blue and photographed at a constant magnification in the light microscope. Thin sections of both nerve and muscles are placed on 300 mesh copper grid calm, stained with uranyl acetate and lead citrate and photographed using a Hitachi HU-12 electron microscope.

[2] = tested on: calcium activated neutral protease; settings: in muscle, squid axoplasm and rat sciatic nerve; cited from earlier work
sciatic nerve [3] = assay: Counts of myelinated axons 5.0 mm distal to repair by light microscopy; assay type: in vivo, rat; settings: treated nerves vs. control nerve
Method: as §1, §2, §3, §4, §5

[4] = tested on: chicken and rat skeletal and fetal heart preparations; settings: cited from earlier work
thrombokinase = settings: cited from earlier work
papain = target: T1, papain (Carica papaya, UniProt P00784); settings: cited from earlier work
T1 sequence (P00784 134-345): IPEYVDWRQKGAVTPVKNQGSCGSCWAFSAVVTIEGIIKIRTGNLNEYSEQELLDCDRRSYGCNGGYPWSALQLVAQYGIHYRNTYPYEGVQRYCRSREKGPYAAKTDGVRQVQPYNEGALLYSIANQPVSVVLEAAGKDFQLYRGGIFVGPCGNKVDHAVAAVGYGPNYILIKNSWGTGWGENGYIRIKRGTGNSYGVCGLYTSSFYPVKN

cathespin B = settings: in muscle, squid axoplasm and rat sciatic nerve; cited from earlier work
kaleikrein = settings: cited from earlier work
plasmin = plasmin (Homo sapiens, UniProt P00747); settings: cited from earlier work
Chain of plasmin (P00747 97-810, species assumed): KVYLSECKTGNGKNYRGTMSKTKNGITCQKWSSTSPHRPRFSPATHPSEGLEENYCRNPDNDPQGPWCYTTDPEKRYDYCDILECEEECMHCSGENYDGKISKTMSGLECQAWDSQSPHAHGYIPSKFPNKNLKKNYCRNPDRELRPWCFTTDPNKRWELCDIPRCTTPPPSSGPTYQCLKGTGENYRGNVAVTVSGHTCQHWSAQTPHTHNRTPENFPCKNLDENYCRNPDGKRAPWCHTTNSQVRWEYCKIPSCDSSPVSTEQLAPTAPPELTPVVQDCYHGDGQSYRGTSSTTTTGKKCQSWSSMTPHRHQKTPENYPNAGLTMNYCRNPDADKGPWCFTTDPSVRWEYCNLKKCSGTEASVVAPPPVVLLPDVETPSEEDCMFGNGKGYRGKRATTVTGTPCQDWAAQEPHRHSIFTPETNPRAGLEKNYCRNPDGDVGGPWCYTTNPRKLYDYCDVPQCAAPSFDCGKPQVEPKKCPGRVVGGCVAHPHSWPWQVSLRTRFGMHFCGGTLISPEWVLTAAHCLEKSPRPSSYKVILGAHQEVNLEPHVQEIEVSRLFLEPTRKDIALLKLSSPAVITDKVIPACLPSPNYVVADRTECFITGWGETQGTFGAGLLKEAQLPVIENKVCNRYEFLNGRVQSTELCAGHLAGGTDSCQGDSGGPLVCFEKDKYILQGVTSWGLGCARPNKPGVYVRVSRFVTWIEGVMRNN

sciatic nerve [5] = assay: Counts of myelinated and unmyelinated axons 5.0 mm distal to repair by electron microscopy; assay type: in vivo, rat; settings: ultrastructural data, up to and including 6 months of treatment
Method: as §1, §2, §3, §4, §5

[6] = tested on: chicken pectoralis muscle; settings: in vivo; cited from earlier work
neurofiber regrowth [7] = assay: Effective dose based upon laboratory tests; assay type: in vivo, mammals; settings: of mammalian weight, single or divided doses
Source text: The exact dose to be administered is dependent upon the age, weight and particular conditions of the individual involved.

neurofiber regrowth [8] = assay: Neurofiber regrowth after microsurgical neurorrhaphy (summary of tables I-V); assay type: in vivo, mammals
Method: as §1, §2, §3
All animals are sacrified by an overdose of pentobarbital, 1.0 cc total volume. […] Myofiber diameters are determined by photographing hematoxylin and eosin sections at a constant magnification in the light microscope. […]

cathespin L = settings: in muscle, squid axoplasm and rat sciatic nerve; cited from earlier work

In the case of `CC(=O)N[C@@H](CC(C)C)C(=O)N[C@@H](CC(C)C)C(=O)N[C@H](C=O)CCCNC(=N)N` [leupeptin], the “number of myelinated axons proximal to repair” value (sciatic nerve [1]) is given as “significantly higher number of myelinated axons when compared to control”, the “inhibition of calcium activated neutral protease” value [2] is given as “inhibited” and the “Wallerian degeneration distal to repair” value (sciatic nerve [3]) is given as “do not undergo as severe a form of Wallerian degeneration as the control nerve”. For the same compound, the protein degradation [4] was “decreased protein degradation”, the protein synthesis [4] was “no effect on protein synthesis” and the inhibition of thrombokinase (thrombokinase) was “effective inhibitor”. For the same compound, the inhibition of papain (papain) was “effective inhibitor”, the “inhibition of cathespin B” value (cathespin B) was “inhibited” and the inhibition of kaleikrein (kaleikrein) was “effective inhibitor”. The inhibition of plasmin (plasmin) was “effective inhibitor”, the “numbers of both myelinated and unmyelinated axons distal to the repair site” value (sciatic nerve [5]) was “increased numbers of both myelinated and unmyelinated axons” and the denervation induced atrophy [6] was “successfully used in vivo as an inhibitor of denervation induced atrophy”. The ED50 (neurofiber regrowth [7]) was 8 to 75 mg/kg, the neurofiber regrowth (neurofiber regrowth [8]) was “significantly enhances neurofiber regrowth” and the “inhibition of cathespin L” value (cathespin L) was “inhibited”.
